Tests used:
Type in all cases: in vivo
[1] = test system: barnyardgrass (Echinochloa crus-galli); experiment: Test C preemergence; conditions: Echinochloa crus-galli, pre-emergence, preemergence, scale 0 to 100, read-out: Plant response rating, Barnyardgrass
In short: (§1)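 Greenhouse test, preemergence on seeded soil or postemergence on 1- to 4-leaf plants. Response is a visual 0-100 rating versus controls, taken 13-15 days after treatment.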

[2] = test system: johnsongrass (Sorghum halepense); experiment: Test C preemergence; conditions: Sorghum halepense, pre-emergence, 336 h, preemergence, scale 0 to 100, read-out: Plant response rating, Johnsongrass
In short: as §1

[3] = test system: galium (catchweed bedstraw, Galium aparine); experiment: Test C preemergence; conditions: Galium, pre-emergence, 336 h, preemergence, scale 0 to 100, read-out: Plant response rating, Galium
In short: as §1

[4] = test system: oilseed rape (Brassica napus); experiment: Test C postemergence; conditions: Brassica napus, post-emergence, Postemergence, scale 0 to 100, read-out: Plant response rating, Oilseed Rape
In short: as §1

[5] = test system: blackgrass (Alopecurus myosuroides); experiment: Test C postemergence; conditions: Alopecurus myosuroides, post-emergence, 336 h, Postemergence, scale 0 to 100, read-out: Plant response rating, Blackgrass
In short: as §1

[6] = test system: barnyardgrass (Echinochloa crus-galli); experiment: Test C postemergence; conditions: Echinochloa crus-galli, post-emergence, Postemergence, scale 0 to 100, read-out: Plant response rating, Barnyardgrass
In short: as §1

[7] = test system: winter wheat (Triticum aestivum); experiment: Test C postemergence; conditions: Triticum aestivum, post-emergence, 336 h, Postemergence, scale 0 to 100, read-out: Plant response rating, Wheat
In short: as §1

[8] = test system: soybean (Glycine max); experiment: Test C postemergence; conditions: Glycine max, post-emergence, Postemergence, scale 0 to 100, read-out: Plant response rating, Soybean
In short: as §1

[9] = test system: johnsongrass (Sorghum halepense); experiment: Test C postemergence; conditions: Sorghum halepense, post-emergence, 336 h, Postemergence, scale 0 to 100, read-out: Plant response rating, Johnsongrass
In short: as §1

[10] = test system: yellow nutsedge (Cyperus esculentus); experiment: Test C postemergence; conditions: Cyperus, post-emergence, 336 h, Postemergence, scale 0 to 100, read-out: Plant response rating, Nutsedge, Yellow
In short: as §1

[11] = test system: large (Lg) crabgrass (Digitaria sanguinalis); experiment: Test C postemergence; conditions: Digitaria sanguinalis, post-emergence, 336 h, Postemergence, scale 0 to 100, read-out: Plant response rating, Crabgrass, Large
In short: as §1

[12] = test system: waterhemp (common waterhemp, Amaranthus rudis); experiment: Test C postemergence; conditions: Amaranthus tuberculatus, post-emergence, Postemergence, scale 0 to 100, read-out: Plant response rating, Waterhemp
In short: as §1

[13] = test system: Italian ryegrass (Lolium multiflorum); experiment: Test C postemergence; conditions: Lolium multiflorum, post-emergence, 336 h, Postemergence, scale 0 to 100, read-out: Plant response rating, Ryegrass, Italian
In short: as §1

[14] = test system: ragweed (common ragweed, Ambrosia elatior); experiment: Test C postemergence; conditions: Ambrosia artemisiifolia, post-emergence, 336 h, Postemergence, scale 0 to 100, read-out: Plant response rating, Ragweed
In short: as §1

[15] = test system: giant foxtail (Setaria faberii); experiment: Test C postemergence; conditions: Setaria faberi, post-emergence, 336 h, Postemergence, scale 0 to 100, read-out: Plant response rating, Foxtail, Giant
In short: as §1

[16] = test system: chickweed (common chickweed, Stellaria media); experiment: Test C postemergence; conditions: Stellaria media, post-emergence, Postemergence, scale 0 to 100, read-out: Plant response rating, Chickweed
In short: as §1

[17] = test system: lambsquarters (Chenopodium album); experiment: Test C postemergence; conditions: Chenopodium album, post-emergence, 336 h, Postemergence, scale 0 to 100, read-out: Plant response rating, Lambsquarters
In short: as §1

[18] = test system: wild oat (Avena fatua); experiment: Test C postemergence; conditions: Avena fatua, post-emergence, Postemergence, scale 0 to 100, read-out: Plant response rating, Oat, Wild
In short: as §1

[19] = test system: corn (Zea mays); experiment: Test C postemergence; conditions: Zea mays, post-emergence, 336 h, Postemergence, scale 0 to 100
In short: as §1

[20] = test system: velvetleaf (Abutilon theophrasti); experiment: Test C postemergence; conditions: Abutilon theophrasti, post-emergence, Postemergence, scale 0 to 100, read-out: Plant response rating, Velvetleaf
In short: as §1

[21] = test system: morningglory (Ipomoea coccinea); experiment: Test C postemergence; conditions: Ipomoea, post-emergence, 336 h, Postemergence, scale 0 to 100, read-out: Plant response rating, Morningglory
In short: as §1

[22] = test system: galium (catchweed bedstraw, Galium aparine); experiment: Test C postemergence; conditions: Galium, post-emergence, 336 h, Postemergence, scale 0 to 100, read-out: Plant response rating, Galium
In short: as §1

`Fc1cnc(Oc2c(Cl)cccc2Oc2ncc(Cl)cn2)nc1` [Compound 18, 5-chloro-2-[5-chloro-6-[(5-fluoro-2-pyrimidinyl)oxy]phenoxy]pyrimidine] gave a pest or weed control at 31 g/ha ([1]; 31 g ai/ha) of 75%, a pest or weed control at 62 g/ha ([1]; 62 g ai/ha) of 100% and a pest or weed control at 125 g/ha ([1]; 125 g ai/ha) of 100%. The pest or weed control at 250 g/ha ([1]; 250 g ai/ha) was 100%, the pest or weed control at 31 g/ha ([2]; 31 g ai/ha) was 50% and the pest or weed control at 62 g/ha ([2]; 62 g ai/ha) was 70%. It also gave a pest or weed control at 125 g/ha ([2]; 125 g ai/ha) of 90%, a pest or weed control at 31 g/ha ([3]; 31 g ai/ha) of 100% and a pest or weed control at 62 g/ha ([3]; 62 g ai/ha) of 100%. The pest or weed control at 125 g/ha ([3]; 125 g ai/ha) was 100%, the plant injury at 31 g/ha ([4]; 31 g ai/ha) was 20% and the plant injury at 62 g/ha ([4]; 62 g ai/ha) was 35%. It also gave a plant injury at 125 g/ha ([4]; 125 g ai/ha) of 50%, a plant injury at 250 g/ha ([4]; 250 g ai/ha) of 80% and a pest or weed control at 31 g/ha ([5]; 31 g ai/ha) of 0%. For the same compound, the pest or weed control at 62 g/ha ([5]; 62 g ai/ha) was 5%, the pest or weed control at 125 g/ha ([5]; 125 g ai/ha) was 5% and the pest or weed control at 250 g/ha ([5]; 250 g ai/ha) was 45%. It also gave a pest or weed control at 31 g/ha ([6]; 31 g ai/ha) of 5%, a pest or weed control at 62 g/ha ([6]; 62 g ai/ha) of 5% and a pest or weed control at 125 g/ha ([6]; 125 g ai/ha) of 5%. It also gave a pest or weed control at 250 g/ha ([6]; 250 g ai/ha) of 10%, a plant injury at 31 g/ha ([7]; 31 g ai/ha) of 0% and a plant injury at 62 g/ha ([7]; 62 g ai/ha) of 0%. It also gave a plant injury at 125 g/ha ([7]; 125 g ai/ha) of 0%, a plant injury at 250 g/ha ([7]; 250 g ai/ha) of 15% and a plant injury at 31 g/ha ([8]; 31 g ai/ha) of 75%. It also gave a plant injury at 62 g/ha ([8]; 62 g ai/ha) of 85%, a plant injury at 125 g/ha ([8]; 125 g ai/ha) of 90% and a plant injury at 250 g/ha ([8]; 250 g ai/ha) of 95%. It also gave a pest or weed control at 31 g/ha ([9]; 31 g ai/ha) of 5%, a pest or weed control at 62 g/ha ([9]; 62 g ai/ha) of 10% and a pest or weed control at 125 g/ha ([9]; 125 g ai/ha) of 5%. The pest or weed control at 250 g/ha ([9]; 250 g ai/ha) was 10%, the pest or weed control at 31 g/ha ([10]; 31 g ai/ha) was 5% and the pest or weed control at 62 g/ha ([10]; 62 g ai/ha) was 10%. For the same compound, the pest or weed control at 125 g/ha ([10]; 125 g ai/ha) was 10%, the pest or weed control at 250 g/ha ([10]; 250 g ai/ha) was 10% and the pest or weed control at 31 g/ha ([11]; 31 g ai/ha) was 5%. For the same compound, the pest or weed control at 62 g/ha ([11]; 62 g ai/ha) was 5%, the pest or weed control at 125 g/ha ([11]; 125 g ai/ha) was 55% and the pest or weed control at 250 g/ha ([11]; 250 g ai/ha) was 70%. The pest or weed control at 31 g/ha ([12]; 31 g ai/ha) was 80%, the pest or weed control at 62 g/ha ([12]; 62 g ai/ha) was 85% and the pest or weed control at 125 g/ha ([12]; 125 g ai/ha) was 95%. It also gave a pest or weed control at 250 g/ha ([12]; 250 g ai/ha) of 98%, a pest or weed control at 31 g/ha ([13]; 31 g ai/ha) of 0% and a pest or weed control at 62 g/ha ([13]; 62 g ai/ha) of 0%. For the same compound, the pest or weed control at 125 g/ha ([13]; 125 g ai/ha) was 0%, the pest or weed control at 250 g/ha ([13]; 250 g ai/ha) was 40% and the pest or weed control at 31 g/ha ([14]; 31 g ai/ha) was 65%. The pest or weed control at 62 g/ha ([14]; 62 g ai/ha) was 75%, the pest or weed control at 125 g/ha ([14]; 125 g ai/ha) was 90% and the pest or weed control at 250 g/ha ([14]; 250 g ai/ha) was 95%. For the same compound, the pest or weed control at 31 g/ha ([15]; 31 g ai/ha) was 15%, the pest or weed control at 62 g/ha ([15]; 62 g ai/ha) was 5% and the pest or weed control at 125 g/ha ([15]; 125 g ai/ha) was 25%. The pest or weed control at 250 g/ha ([15]; 250 g ai/ha) was 45%, the pest or weed control at 31 g/ha ([16]; 31 g ai/ha) was 50% and the pest or weed control at 62 g/ha ([16]; 62 g ai/ha) was 55%. It also gave a pest or weed control at 125 g/ha ([16]; 125 g ai/ha) of 80%, a pest or weed control at 250 g/ha ([16]; 250 g ai/ha) of 95% and a pest or weed control at 31 g/ha ([17]; 31 g ai/ha) of 65%. The pest or weed control at 62 g/ha ([17]; 62 g ai/ha) was 90%, the pest or weed control at 125 g/ha ([17]; 125 g ai/ha) was 95% and the pest or weed control at 250 g/ha ([17]; 250 g ai/ha) was 95%. For the same compound, the pest or weed control at 31 g/ha ([18]; 31 g ai/ha) was 0%, the pest or weed control at 62 g/ha ([18]; 62 g ai/ha) was 0% and the pest or weed control at 125 g/ha ([18]; 125 g ai/ha) was 5%. It also gave a pest or weed control at 250 g/ha ([18]; 250 g ai/ha) of 30%, a Corn plant response rating (crop injury, 0 = no effect, 100 = complete kill) at 31 g/ha ([19]; 31 g ai/ha) of 5% and a Corn plant response rating (crop injury, 0 = no effect, 100 = complete kill) at 62 g/ha ([19]; 62 g ai/ha) of 5%. It also gave a Corn plant response rating (crop injury, 0 = no effect, 100 = complete kill) at 125 g/ha ([19]; 125 g ai/ha) of 20%, a Corn plant response rating (crop injury, 0 = no effect, 100 = complete kill) at 250 g/ha ([19]; 250 g ai/ha) of 55% and a pest or weed control at 31 g/ha ([20]; 31 g ai/ha) of 45%. For the same compound, the pest or weed control at 62 g/ha ([20]; 62 g ai/ha) was 60%, the pest or weed control at 125 g/ha ([20]; 125 g ai/ha) was 70% and the pest or weed control at 250 g/ha ([20]; 250 g ai/ha) was 85%. For the same compound, the pest or weed control at 31 g/ha ([21]; 31 g ai/ha) was 75%, the pest or weed control at 62 g/ha ([21]; 62 g ai/ha) was 70% and the pest or weed control at 125 g/ha ([21]; 125 g ai/ha) was 85%. It also gave a pest or weed control at 250 g/ha ([21]; 250 g ai/ha) of 95%, a pest or weed control at 31 g/ha ([22]; 31 g ai/ha) of 70% and a pest or weed control at 62 g/ha ([22]; 62 g ai/ha) of 90%. It also gave a pest or weed control at 125 g/ha ([22]; 125 g ai/ha) of 95% and a pest or weed control at 250 g/ha ([22]; 250 g ai/ha) of 95%.

Reference: patent US20170190671A1, “BIS(ARYL)CATECHOL DERIVATIVES AS HERBICIDES” (E I DU PONT DE NEMOURS AND COMPANY, priority 2014, published 2017)
